The target of one experiment is sodium channel (Nach). The experiment is described as follows: Inhibition of binding of [3H]BTX-B to rat forebrain homogenates. Particulars: extrapolated IC50; [3H]BTX-B binding. Here is the method:
Experiments were performed using forebrain (whole brain less cerebellum/medulla) from Male Wistar rats weighing 175-250 g. All efforts were made to reduce the number of animals used and all experiments were carried out in accordance with the UK Animals (Scientific Procedures) Act, 1986 and the European Community Council Directive of 24 Nov. 1986 (86/609/EEC). Following killing of animals by stunning and decapitation, the forebrain (whole brain less cerebellum/medulla) was rapidly dissected and transferred to a weighed tube containing ice-cold 0.25M sucrose.
Homogenates were prepared by transferring the known weight of forebrain to a cooled tube containing 9 volumes of ice-cold 50 mM pH 7.4 HEPES buffer. The mixture was homogenised @ 4° by 3×5 sec bursts of an Ultra-Turrax™ homogeniser set at maximum speed. The resulting homogenate was centrifuged at 40,000×g (average) at 4° for 15 min and the supernatant discarded. The resulting pellet was resuspended in 9 volumes of fresh ice-cold pH 7.4 buffer (as above), the centrifugation step was repeated and the resulting pellet resuspended in the [^3H]BTX-B binding buffer at a concentration of 20-25 mg wet weight per ml assay buffer.
Both assays were carried out using 14 ml polypropylene test tubes to which a range of concentrations of the compounds under test were added.
[^3H]BTX-B binding was carried out using the method described by Catterall et al (1981), except that both bovine serum albumin and TTX were omitted from the incubation medium.
IC50 values were obtained from radioligand displacement or guanidine flux inhibition curves by plotting log10 concentration vs bound ligand/guanidine uptake according the equation:— y=Rmin+Rsp/{1+exp [−n(x−C)]}
and • C=IC50 (i.e. concentration required to inhibit 50% of specific binding Hippocampal Slice Assay

Experiment [1] has as its target T1, DiHydroFolate Reductase (DHFR) (Rattus norvegicus, UniProt Q920D2).
T1 construct: from tissue; host or cells: rat liver homogenate, 47,500 x g supernatant
T1 sequence (Q920D2 1-187): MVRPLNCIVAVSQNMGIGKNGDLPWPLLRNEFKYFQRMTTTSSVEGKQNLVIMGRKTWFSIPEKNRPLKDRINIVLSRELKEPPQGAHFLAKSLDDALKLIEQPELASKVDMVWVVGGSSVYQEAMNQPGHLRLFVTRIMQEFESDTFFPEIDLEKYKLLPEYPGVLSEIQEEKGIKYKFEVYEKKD
Put plainly: Inhibition of binding of [3H]methotrexate to rat liver homogenate supernatant (DHFR). Particulars: read-out: DHFR (% inhibition @ 125 μm). Here is the method: All steps were carried out at 4° (or on ice). Freshly dissected rat liver was dissected into 0.25M ice-cold Sucrose and subsequently homogenised (U-turrax) in 50 mM pH 6.0 phosphate buffer (10 ml/g tissue) containing 15 mM Dithiothreitol. The resulting homogenate was centrifuged @ 47,500×g for 20 min and supernatant (filtered through cotton wool to remove fatty lumps) stored @-80° before use (Rothenberg et al).
Inhibition of the binding of [^3H]methotrexate to rat liver homogenate supernatant fractions were carried out essentially as described by Arons et al, 1975.

As to `Nc1nnc(C(c2ccc(F)cc2)c2ccc(F)cc2)c(N)n1` [CEN-247], the 50% inhibitory concentration (IC50) (usually the concentration needed to halve the response being measured) on sodium channel (Nach) is 9 µM. For the same molecule, the inhibition – broadly, the relative decrease from the control value, in per cent – at […] in experiment [1] stood at 0%.
In the case of `Cc1ccc(C2(c3nnc(N)nc3N)CCCCC2)cc1` [CEN-239], the half-maximal inhibitory concentration (IC50) on sodium channel (Nach) is less than 0.5 µM. Further, the inhibition at […] in experiment [1] stood at 73%.
For the molecule `Nc1nnc(C2CC2c2ccccc2)c(N)n1` (stereo not drawn) [CEN-238], the concentration for half-maximal inhibition (IC50) at sodium channel (Nach) was more than 190 µM.
For `Cc1ccc(C2(c3nnc(N)nc3N)CCCC2)cc1` [CEN-237], at sodium channel (Nach), the half-maximal inhibitory concentration (IC50) is less than 0.5 µM. For the same molecule, the inhibition at […] in experiment [1] turned out to be 70%.
`Nc1nnc(-c2cccc(OCc3cccc4ccccc34)c2)c(N)n1` [CEN-245]: the half-inhibitory concentration (IC50) on sodium channel (Nach) is 57 µM. The inhibition at […] in experiment [1] is 55%.
Consider `Nc1nnc(C2(c3ccccc3)CCCC2)c(N)n1` [CEN-232], for which the IC50 at sodium channel (Nach) is 5 µM. Moreover, the inhibition at […] in experiment [1] amounted to 100%.
On the same counts, the results for `Nc1nnc(C2(c3cccc(F)c3)CCCC2)c(N)n1` [CEN-236] are 4 µM and 14%.
The matching figures for `Nc1nnc(C2(c3ccc(Cl)cc3Cl)CC2)c(N)n1` [CEN-235]: 8 µM and 63%.
For the molecule `Nc1nnc(C(Cc2ccccc2)c2ccccc2)c(N)n1` (stereo not drawn) [CEN-241], in experiment [1], the inhibition at […] worked out at 90%.
Consider `COc1ccc(C2(c3nnc(N)nc3N)CC2)cc1` [CEN-244], for which the IC50 on sodium channel (Nach) was 115 µM. Further, in experiment [1], the inhibition at […] was found to be 0%.
The matching figures for `COc1ccc(C2(c3nnc(N)nc3N)CCCC2)cc1` [CEN-234]: 3 µM and 22%.
As for `COc1ccc(C2(c3nnc(N)nc3N)CCCCC2)cc1` [CEN-231], the 50% inhibitory concentration (IC50) on sodium channel (Nach) is 1 µM.
As to `Nc1nnc(C2(c3ccccc3)CCCCC2)c(N)n1` [CEN-230], the half-inhibitory concentration (IC50) at sodium channel (Nach) is 23 µM. Further, in experiment [1], the inhibition at […] is 0%.
Turning to `Nc1nnc(C2(c3ccccc3)CC2)c(N)n1` [CEN-240], in experiment [1], the inhibition at […] was determined as 8%.

(Values after patent publication US8748600B2, “Cyclic triazo sodium channel blockers” (University of Greenwich, priority 2009, dated 2014).)
